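Growth conditions: 96-well plates. Treatment: test compound, 48 hours, 5 concentrations. Analysis: linear interpolation between bracketing concentrations; unreached endpoints set to highest concentration. The concentration for 50% growth inhibition is given as GI50. At the TGI there is no net growth.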
Experiments:
Assay in all cases: NCI tumour cell line growth inhibition, 48 h
HL-60(TB) leukemia = system: HL-60(TB) leukemia
BT-549 breast = system: BT-549 breast
HCT-116 colon = system: HCT-116 colon
MDA-N = system: MDA-N
P388/ADR leukemia = system: P388/ADR leukemia
P388 leukemia = system: P388 leukemia
SN12K1 renal = system: SN12K1 renal
RXF-631 renal = system: RXF-631 renal

| SMILES | TGI (HL-60(TB) leukemia) [µM] | TGI (BT-549 breast) [µM] | TGI (HCT-116 colon) [µM] | TGI (MDA-N) [µM] | further results |
| --- | --- | --- | --- | --- | --- |
| c1ccc(SC(Sc2ccccc2)c2ccc3c(c2)OCO3)cc1 | > 100 | > 100 | > 100 | > 100 | – |
| COc1cccc(C2C(C(=O)O)=C(CO)Oc3cc4c(cc32)OCO4)c1 (centres undefined) | > 100 | – | – | – | – |
| O=NNc1cnccn1 | > 852 | > 1250 | > 1250 | > 1250 | TGI (P388/ADR leukemia): > 1250 µM; TGI (P388 leukemia): > 1250 µM; TGI (SN12K1 renal): > 1250 µM |
| O=C(O)c1cncc(C(=O)O)c1 | > 100 | > 100 | > 100 | > 100 | – |
| O=C(O)/C=C/c1cnc[nH]1 | > 500 | – | > 500 | – | TGI (P388/ADR leukemia): > 500 µM; GI50 (HL-60(TB) leukemia): > 500 µM; GI50 (P388 leukemia): > 500 µM; TGI (P388 leukemia): > 500 µM; TGI (SN12K1 renal): > 500 µM |
| C=C(CN(C)C)C(=O)c1cc(C)ccc1C | 0.446 | 32.5 | 17.4 | 21.4 | – |
| O=C(N1CCC(CN=c2cc3n(-c4ccc(Cl)cc4)c4ccccc4nc-3cc2Nc2ccc(Cl)cc2)CC1)N1CC1 | 3.64 | – | – | – | GI50 (HL-60(TB) leukemia): 1.5 µM |
| COc1ccc2c(c1)O[C@H]1c3ccc(O)cc3OC[C@@H]21 | 49.8 | – | > 100 | – | TGI (RXF-631 renal): > 100 µM |
| CCOC(=O)C1(C(=O)OCC)CSC1 | – | – | > 100 | > 100 | – |
| NC(CCCNc1cccc(O)c1)C(=O)O (centres undefined) | > 100 | – | > 100 | – | – |
| COc1ccc2c[n+](C)c3c4cc(OC)c(OC)cc4ccc3c2c1 | 32.4 | 10.8 | 16.8 | – | TGI (RXF-631 renal): 46.9 µM |
| COC(=O)C1=COC2OC3/C(=C\c4ccc(O)c(OC)c4)C(=O)OC34C=CC1C24 (centres undefined) | 27.7 | – | 34.4 | – | – |
| CCOc1ccc(N=Nc2ccc3oc(=O)c(/C(C)=N\NC(=O)CC(=O)Nc4ccc(Cl)cc4)cc3c2)cc1 | – | – | 31.5 | – | TGI (RXF-631 renal): 45.5 µM |
